Test results from the NIST ThermoML archive (doi:10.1021/je3007953).

Tests used:
[1] = xn = mol fraction of the nth substance listed; details: Liquid, Vibrating tube method
[2] = molar heat capacity at constant pressure; xn = mol fraction of the nth substance listed; details: Liquid, Small sample (50 mg) DSC

C[n+]1ccn(CCO)c1.[Cl-] [1-(2-hydroxyethyl)-3-methyl-1H-imidazolium chloride] + O
Details | mass density, x1 = 0.0122 [kg/m3] | mass density, x1 = 0.0453 [kg/m3] | mass density, x1 = 0.0997 [kg/m3] | mass density, x1 = 0.2054 [kg/m3] | mass density, x1 = 0.3071 [kg/m3] | molar heat capacity at constant pressure, x1 = 0.0122 [J/K/mol] | molar heat capacity at constant pressure, x1 = 0.0453 [J/K/mol] | molar heat capacity at constant pressure, x1 = 0.0997 [J/K/mol] | molar heat capacity at constant pressure, x1 = 0.2054 [J/K/mol] | molar heat capacity at constant pressure, x1 = 0.3071 [J/K/mol]
[1], 298.15 K | 1016.85 | 1059.73 | 1107.52 | 1136.95 | 1187.93 | – | – | – | – | –
[1], 303.15 K | 1015.23 | 1057.69 | 1105.14 | 1134.43 | 1185.25 | – | – | – | – | –
[1], 308.15 K | 1013.43 | 1055.55 | 1102.71 | 1131.88 | 1182.56 | – | – | – | – | –
[1], 313.15 K | 1011.46 | 1053.3 | 1100.22 | 1129.28 | 1179.87 | – | – | – | – | –
[1], 318.15 K | 1009.27 | 1050.94 | 1097.68 | 1126.66 | 1177.16 | – | – | – | – | –
[1], 323.15 K | 1005.9 | 1048.46 | 1095.08 | 1123.99 | 1174.45 | – | – | – | – | –
[2], 298.15 K | – | – | – | – | – | 75.34 | 79.99 | 88.41 | 107.22 | 124.59
[2], 303.15 K | – | – | – | – | – | 75.7 | 80.58 | 89.25 | 108.22 | 125.97
[2], 308.15 K | – | – | – | – | – | 76.07 | 81.14 | 90.1 | 109.32 | 127.4
[2], 313.15 K | – | – | – | – | – | 76.41 | 81.68 | 90.91 | 110.27 | 128.97
[2], 318.15 K | – | – | – | – | – | 76.86 | 82.39 | 91.91 | 111.66 | 130.65
[2], 323.15 K | – | – | – | – | – | 77.24 | 83.01 | 92.79 | 112.94 | 132.15
[2], 328.15 K | – | – | – | – | – | 77.61 | 83.57 | 93.66 | 114.19 | 133.71
[2], 333.15 K | – | – | – | – | – | 77.97 | 84.16 | 94.54 | 115.52 | 135.39
[2], 338.15 K | – | – | – | – | – | 78.39 | 84.85 | 95.51 | 117 | 137.33
[2], 343.15 K | – | – | – | – | – | 78.9 | 85.64 | 96.65 | 118.67 | 139.45
[2], 348.15 K | – | – | – | – | – | 79.24 | 86.2 | 97.49 | 120.06 | 141.39
[2], 353.15 K | – | – | – | – | – | 79.67 | 86.89 | 98.46 | 121.68 | 143.57
